The results in this text go back to BindingDB's records for doi:10.1021/np0302302 (Schering-Plough Research Institute, 2003).

SMILES strings stand for the structures.

The term EC50 denotes the concentration needed to bring the measured effect to its halfway point.

This experiment deals with DNA primase DnaG (Escherichia coli) (UniProt P0ABS5). Put plainly: Inhibition of Escherichia coli DNA primase after 1 hr by [3H]rNTPs incorporation assay.
Sequence of DNA primase DnaG (Escherichia coli) (P0ABS5 whole entry, looked up): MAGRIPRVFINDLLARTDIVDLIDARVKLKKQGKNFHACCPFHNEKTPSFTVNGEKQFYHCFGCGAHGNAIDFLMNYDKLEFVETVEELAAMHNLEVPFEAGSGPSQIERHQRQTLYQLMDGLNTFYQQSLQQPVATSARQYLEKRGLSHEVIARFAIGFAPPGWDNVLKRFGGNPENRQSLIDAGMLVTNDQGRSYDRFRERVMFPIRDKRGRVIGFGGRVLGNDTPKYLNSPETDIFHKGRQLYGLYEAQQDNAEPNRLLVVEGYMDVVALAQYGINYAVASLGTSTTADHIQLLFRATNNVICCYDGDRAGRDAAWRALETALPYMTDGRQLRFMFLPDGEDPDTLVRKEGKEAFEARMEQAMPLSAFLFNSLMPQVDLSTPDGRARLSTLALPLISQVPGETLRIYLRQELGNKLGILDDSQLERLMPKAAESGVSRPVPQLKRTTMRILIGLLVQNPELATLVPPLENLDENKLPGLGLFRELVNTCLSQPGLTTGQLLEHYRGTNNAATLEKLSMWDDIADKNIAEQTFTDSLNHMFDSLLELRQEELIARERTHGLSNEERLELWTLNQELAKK

`C[C@H]1CCCC[C@H]2C(=O)C=C[C@H](O)[C@@H]2CC(=O)O1` [(4S,8aR,12S,12aR)-12-hydroxy-4-methyl-4,5,6,7,8,8a-hexahydro-1H-benzo[d]oxecine-2,9(12H,12aH)-dione] had an EC50 of 70 µM.
